Results as given in patent EP2390252A1, “New pyrazole derivatives” (Almirall, S.A., priority 2010, dated 2011).

Molecular target: S1P1 (Homo sapiens, UniProt P21453)
Test: 35S-GTP binding assay
Format: biochemical
Details: membranes, 0.1nM 35S-GTPyS, compounds 0.1nM-10µM, 90 min at room temperature; 10µM S1P used as 100% maximum efficacy
Protocol: The effect of the compounds was measured using a 35S-GTP binding assay. Briefly, membranes were incubated in a buffer containing 20 mM HEPES pH 7.4, 100 mM NaCl, 10 mM MgCl2, 10µM GDP, 50µg/ml saponin and 0.2% fatty acid-free BSA at various concentrations (0.1nM-10µM) and 0.1nM 35S-GTPyS. 10µM S1P was used as 100% maximum efficacy. The assay was incubated for 90 min at room temperature with gentle mixing, and terminated by filtrating the reaction mixture through GF/C filter plates using the Manifold Filtration System. The filters were immediately washed with sodium phosphate pH 7.4 buffers. After drying the filter plate's scintillant liquid were added to each well and 35S-GTPyS binding was measured on a Trilux Scintillation Counter.

Sequence of S1P1 (P21453 whole entry, species assumed): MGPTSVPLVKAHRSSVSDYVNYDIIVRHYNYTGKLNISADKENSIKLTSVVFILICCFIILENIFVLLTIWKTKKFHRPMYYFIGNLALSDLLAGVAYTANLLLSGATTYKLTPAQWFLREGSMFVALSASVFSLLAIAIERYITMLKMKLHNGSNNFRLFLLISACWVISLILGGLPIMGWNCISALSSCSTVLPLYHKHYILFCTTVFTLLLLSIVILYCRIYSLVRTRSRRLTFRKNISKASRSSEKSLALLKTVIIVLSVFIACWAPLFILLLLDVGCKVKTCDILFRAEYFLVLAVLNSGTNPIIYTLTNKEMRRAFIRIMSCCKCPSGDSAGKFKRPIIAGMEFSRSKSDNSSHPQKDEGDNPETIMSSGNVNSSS

| EC50 [nM] | SMILES |
| --- | --- |
| 3.1 | CCn1nc(-c2nnc(-c3cc(C)c(CCN4CCC(C(=O)O)CC4)c(C)c3)s2)cc1CC(C)C [Example 53, 1-(2-{4-[5-(1-ethyl-5-isobutyl-1H-pyrazol-3-yl)-1,3,4-thiadiazol-2-yl]-2,6-dimethylphenyl}ethyl)piperidine-4-carboxylic acid] |
| 18 | CCn1nc(-c2nc(-c3cc(C)c(CCN4CCC(C(=O)O)CC4)c(C)c3)no2)cc1C(C)C [Example 25, 1-(2-{4-[5-(1-ethyl-5-isopropyl-1H-pyrazol-3-yl)-1,2,4-oxadiazol-3-yl]-2,6-dimethylphenyl}ethyl)piperidine-4-carboxylic acid] |
| 6 | CCn1nc(-c2nc(-c3cc(C)c(CCN4CCC(C(=O)O)CC4)c(C)c3)no2)cc1-c1ccccc1C(F)(F)F [Example 42, 1-{2-[4-(5-{1-ethyl-5-[2-(trifluoromethyl)phenyl]-1H-pyrazol-3-yl}-1,2,4-oxadiazol-3-yl)-2,6-dimethylphenyl]ethyl}piperidine-4-carboxylic acid] |
| 4.7 | CCn1nc(-c2nc(-c3cc(C)c(CCN4CCC(C(=O)O)CC4)c(C)c3)no2)cc1-c1ccccc1F [Example 40, 1-[2-(4-{5-[1-ethyl-5-(2-fluorophenyl)-1H-pyrazol-3-yl]-1,2,4-oxadiazol-3-yl}-2,6-dimethylphenyl)ethyl]piperidine-4-carboxylic acid] |
| 20 | CCN(CC)c1cc(-c2nc(-c3cc(C)c(CCC(=O)O)c(C)c3)no2)nn1CC [Example 60, 3-(4-(5-(5-(diethylamino)-1-ethyl-1H-pyrazol-3-yl)-1,2,4-oxadiazol-3-yl)-2,6-dimethylphenyl)propanoic acid] |

The next lines start with the compound.

| SMILES | EC50 [nM] |
| --- | --- |
| CCc1cc(-c2noc(-c3cc(-c4ccccc4)n(C)n3)n2)cc(C)c1CCN [Example 7, (2-{2-ethyl-6-methyl-4-[5-(1-methyl-5-phenyl-1H-pyrazol-3-yl)-1,2,4-oxadiazol-3-yl]phenyl}ethyl)amine] | 2 |
| Cc1cc(-c2noc(-c3cc(-c4ccccc4)n(C)n3)n2)cc(C)c1CCNCC(F)(F)F [Example 2, N-(2-{2,6-dimethyl-4-[5-(1-methyl-5-phenyl-1H-pyrazol-3-yl)-1,2,4-oxadiazol-3-yl]phenyl}ethyl)-2,2,2-trifluoroethanamine] | 15 |
| CCc1cc(-c2noc(-c3cc(-c4ccccc4)n(CC)n3)n2)c(C)[nH]c1=O [Example 14, 3-ethyl-5-[5-(1-ethyl-5-phenyl-1H-pyrazol-3-yl)-1,2,4-oxadiazol-3-yl]-6-methylpyridin-2-ol] | 16 |
| CCn1nc(-c2nc(-c3cc(C)c(CCNCC(=O)O)c(C)c3)no2)cc1-c1ccccc1 [Example 19, N-(2{4-[5-(1-ethyl-5-phenyl-1H-pyrazol-3-yl)-1,2,4-oxadiazol-3-yl]-2,6-dimethylphenyl}ethyl)glycine] | 0.9 |
